Source: article PMC10916382, “Repurposing screen identifies novel candidates for broad-spectrum coronavirus antivirals and druggable host targets” (Antimicrobial Agents and Chemotherapy, 2024)
Counter-ions that a name gives are not always drawn. Like-named read-outs stand apart in the source and are kept apart here.

What was measured:
[1] = tested on: HCoV-229E; assay: microbe, parasite or virus in culture; type: cell-based, Homo sapiens sapiens; details: Human coronavirus 229E
[2] = tested on: Huh-7.5/F-Luc cells
[3] = tested on: SARS-CoV-2
[4] = in vitro; details: human
[5] = in vitro
[6] = Huh7.5, read-out: IC50 (µM), HCoV 229E
[7] = Huh-7.5/F-Luc cells, maximum tested dose 5 µM
[8] = Calu-3 cells, immunofluorescence imaging
[9] = Anti-SARS-CoV-2 screening on Calu-3 cells: viability [% of control], Calu-3 cells
[10] = Huh-7.5 cells, dose series, maximum tested dose 5 µM

Row | Compound | IC50 [1, 6] | CC50 (µM) [2, 7] | Anti-SARS-CoV-2 screening on Calu-3 cells: intracellular SARS-CoV-2 infection measured via immunofluorescence imaging [% of control] [3, 8] | viability at 5 µM [4] | viability [5, 9] | viability at 48 h, 5 µM [5] | CC50 (µM) [2] | Anti-SARS-CoV-2 screening on Calu-3 cells: intracellular SARS-CoV-2 infection measured via immunofluorescence imaging [% of control] [3] | viability [5] | viability at 48 h, 5 µM [5, 9] | IC50 ([1]; Huh7.5) | CC50 (µM) [2, 10]
1 | CCCCc1oc2ccc(C(=O)OC(C)C)cc2c1C(=O)c1ccc(CCCN(CCCC)CCCC)cc1 [RFM-009-487-1] | 1.23 µM | greater than maximum tested dose | 97.65 % of control | 122% | 87.8% |  |  |  |  |  |  | 
2 | CC(C)C(=O)c1ccc(OCCCN2CCC(C(O)(c3ccc(F)cc3)c3ccc(F)cc3)CC2)cc1 [RFM-010-056-1] | 1.47 µM | greater than maximum tested dose | 122.17 % of control | 119% | 93.4% |  |  |  |  |  |  | 
3 | Cc1nc(Nc2ncc(N3CCN(C)[C@H](C)C3)c(Nc3cc(C)n(C)n3)n2)cc(C2CC2)c1F [RFM-012-989-5] | 1.97 µM | greater than maximum tested dose | 114.63 % of control | 125% | 114% |  |  |  |  |  |  | 
4 | CCCN(CCC)C(=O)C(Cc1ccc(OCCCN2CCN(C)CC2)cc1)NC(=O)c1cccc(Cl)c1 (stereo not shown) [RFM-012-155-1] | 3.67 µM | greater than maximum tested dose | 95.12 % of control | 126% | 104% |  |  |  |  |  |  | 
5 | Oc1ccc(Nc2ccnc3cc(Cl)ccc23)cc1CN1CCCC1 [RFM-010-841-8] | 1.41 µM | greater than maximum tested dose | 102.22 % of control | 165% | 109% |  |  |  |  |  |  | 
6 | CN(C)C(=O)NC1(c2ccccc2)CCN(CCC[C@]2(c3ccc(Cl)c(Cl)c3)CCCN(C(=O)c3ccccc3)C2)CC1 [RFM-003-485-5] | 1.64 µM | greater than maximum tested dose | 114.56 % of control | 172% | 109% |  |  |  |  |  |  | 
7 | COc1cc2c(cc1NS(=O)(=O)c1ccc(-c3ccc(Cl)s3)cc1)CCN(C)CC2 [RFM-010-759-5] | 1.73 µM | greater than maximum tested dose | 107.82 % of control | 133% | 92.9% |  |  |  |  |  |  | 
8 | CC(CN(C)C)CN1c2ccccc2CCc2ccccc21 (stereo not shown) [RFM-008-630-6] | 1.47 µM | greater than maximum tested dose | 106.86 % of control | 145% |  | 114% |  |  |  |  |  | 
9 | OCCN1CCN(CCCN2c3ccccc3Sc3ccc(C(F)(F)F)cc32)CC1 [RFM-001-668-2] |  | greater than maximum tested dose | 116.92 % of control | 154% | 99% |  |  |  |  |  |  | 
10 | CCCCCCOC(=O)NC(=N)c1ccc(NCc2nc3cc(C(=O)N(CCC(=O)OCC)c4ccccn4)ccc3n2C)cc1 [RFM-002-982-3] | 3.13 µM | greater than maximum tested dose | 100.41 % of control | 126% | 106% |  |  |  |  |  |  | 
11 | CN(C)CC(O)COc1ccccc1C1CC2CCC1C2 (stereo not shown) [RFM-012-243-0] | 1.84 µM | greater than maximum tested dose | 114.97 % of control | 142% | 95.3% |  |  |  |  |  |  | 
12 | CC(OCCN1CCCCCC1)(c1ccccc1)c1ccc(Cl)cc1 (stereo not shown) [RFM-000-944-9] | 1.87 µM | greater than maximum tested dose | 104.31 % of control | 146% | 95.3% |  |  |  |  |  |  | 
13 | COC(=O)C1=C(C)NC(C)=C(C(=O)OCCCN2CCC(c3ccccc3)(c3ccccc3)CC2)[C@@H]1c1cccc([N+](=O)[O-])c1 [RFM-003-515-4] | 1.39 µM |  |  | 136% |  |  | greater than maximum tested dose | 83.07 % of control | 92.9% |  |  | 
14 | Cc1cc(OCCN(C)C)c(C(C)C)cc1OC(=O)CC(C)(C)SN=O [RFM-011-454-5] | 2.37 µM | greater than maximum tested dose | 101.17 % of control | 118% | 88.9% |  |  |  |  |  |  | 
15 | c1ccc2c(c1)Sc1ccccc1N2CC1CN2CCC1CC2 (stereo not shown) [RFM-000-842-4] | 1.6 µM | greater than maximum tested dose | 112.52 % of control | 166% |  | 110% |  |  |  |  |  | 
16 | CCN(CC)CCOc1ccc(-c2nc3cc(Cl)ccc3s2)cc1 [RFM-005-834-4] | 1.51 µM | greater than maximum tested dose | 104.24 % of control | 91.6% | 88.8% |  |  |  |  |  |  | 
17 | COCCN1CCC(N(Cc2ccc(-c3ccc(C(F)(F)F)cc3)cc2)C(=O)c2ccco2)CC1 [RFM-012-120-0] | 1.61 µM | greater than maximum tested dose | 87.75 % of control | 130% | 94.4% |  |  |  |  |  |  | 
18 | Cc1c(-c2ccc(O)cc2)n(Cc2ccc(OCCN3CCCCCC3)cc2)c2ccc(O)cc12 [RFM-002-868-2] |  | greater than maximum tested dose | 103.07 % of control | 165% |  |  |  |  |  | 96.9% |  | 
19 | Oc1ccc2c(c1)OC[C@@H](c1ccccc1)[C@H]2c1ccc(OCCN2CCCC2)cc1 [RFM-011-457-8] | 1.5 µM | greater than maximum tested dose | 113.89 % of control | 144% | 101% |  |  |  |  |  |  | 
20 | OCCN1CCN(CC/C=C2/c3ccccc3Sc3ccc(Cl)cc32)CC1 [ZUCLOPENTHIXOL] |  |  | 108.85 % of control |  |  | 110% |  |  |  |  | 1.13 µM | greater than maximum tested dose
21 | CN(C)CCOc1ccc(/C(=C(/CCCl)c2ccccc2)c2ccccc2)cc1 [TOREMIFENE CITRATE] |  |  | 114.97 % of control |  |  |  |  |  | 95.3% |  | 1.02 µM | greater than maximum tested dose
22 | COc1cccc2c1C(=O)c1c(O)c3c(c(O)c1C2=O)C[C@@](O)(C(=O)CO)C[C@@H]3O[C@H]1C[C@H](N)[C@H](O[C@@H]2CCCCO2)[C@H](C)O1 [pirarubicin] |  |  | 112.83 % of control |  | 56.9% |  |  |  |  |  | 0.89 µM | greater than maximum tested dose
23 | CC(C)Oc1ccc(-c2nc(-c3cccc4c3CC[C@@H]4NCCO)no2)cc1C#N [CBR-001-211-015-5] | 1.17 µM | greater than maximum tested dose |  | 129% |  |  |  |  |  |  |  | 
24 | CCNCc1cc(Nc2ccnc3cc(Cl)ccc23)ccc1O [CBR-001-843-604-9] | 1.43 µM | greater than maximum tested dose |  | 131% |  |  |  |  |  |  |  | 
25 | CC1=C(c2ccc(O)cc2)[C@H](c2ccc(OCCN3CCCCC3)cc2)Oc2cc(O)ccc21 [ACOLBIFENE] |  |  | 111.23 % of control |  |  | 88% |  |  |  |  | 0.99 µM | greater than maximum tested dose
